Data reported in paper PMC5064002, “Sintokamide A Is a Novel Antagonist of Androgen Receptor That Uniquely Binds Activation Function-1 in Its Amino-terminal Domain” (The Journal of Biological Chemistry, 2016).
Like-named read-outs stand apart in the source and are kept apart here.

What was measured:
Tau5 = test system: Tau5; design: method as in PMID 27356095; conditions: contact to residues 353–364, 397–407 and 433–466; cited from earlier work
endogenous FL-AR = biological target: T1, endogenous FL-AR (Homo sapiens, UniProt P10275, T878A); assay: Binding assay of click chemistry probes to full-length AR in LNCaP cells; conditions: 20 μM LPY probes or 25 μM EPI-053, click chemistry, Western blot
T1 construct: endogenous in cells; host or cells: LNCaP
T1 sequence (P10275 1-920 T878A): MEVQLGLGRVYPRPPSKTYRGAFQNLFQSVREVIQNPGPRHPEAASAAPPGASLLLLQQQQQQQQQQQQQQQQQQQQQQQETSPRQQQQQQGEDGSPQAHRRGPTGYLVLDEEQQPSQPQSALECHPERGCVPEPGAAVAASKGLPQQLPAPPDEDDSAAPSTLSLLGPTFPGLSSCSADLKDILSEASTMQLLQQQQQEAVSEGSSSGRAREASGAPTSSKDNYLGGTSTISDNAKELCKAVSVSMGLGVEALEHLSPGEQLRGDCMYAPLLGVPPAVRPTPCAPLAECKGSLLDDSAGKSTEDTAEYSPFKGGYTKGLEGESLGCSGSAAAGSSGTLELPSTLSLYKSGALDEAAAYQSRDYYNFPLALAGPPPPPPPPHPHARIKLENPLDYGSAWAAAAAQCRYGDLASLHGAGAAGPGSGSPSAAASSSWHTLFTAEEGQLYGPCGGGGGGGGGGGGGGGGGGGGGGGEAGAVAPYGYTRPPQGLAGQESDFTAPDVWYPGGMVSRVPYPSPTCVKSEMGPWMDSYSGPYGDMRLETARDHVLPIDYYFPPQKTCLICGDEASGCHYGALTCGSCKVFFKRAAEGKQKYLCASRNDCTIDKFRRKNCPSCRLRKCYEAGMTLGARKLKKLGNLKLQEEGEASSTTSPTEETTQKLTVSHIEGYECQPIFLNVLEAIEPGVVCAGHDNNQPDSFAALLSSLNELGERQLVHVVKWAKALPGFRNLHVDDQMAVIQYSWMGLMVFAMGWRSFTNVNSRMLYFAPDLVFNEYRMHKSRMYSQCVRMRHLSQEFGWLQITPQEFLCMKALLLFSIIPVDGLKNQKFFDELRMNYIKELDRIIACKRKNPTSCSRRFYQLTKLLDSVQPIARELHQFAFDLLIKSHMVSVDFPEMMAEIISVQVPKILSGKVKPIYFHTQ
Description: LNCaP cells were treated for 24 h with 20 μM modified SINT1 (LPY19, -30, and -31) or the vehicle dimethyl sulfoxide (DMSO). 25 μM EPI-053 (a modified EPI-001 analog) was used as positive control ([5]). Proteins were extracted with lysis buffer and subjected to click chemistry conditions for 3 h at 25 °C in buffer containing 0.1% SDS, 5% t-butyl alcohol, 100 μM tris[(1-benzyl-1H-1,2,3-triazol-4-yl)methyl]amine (Sigma), 1 mM tris(2-carboxyethyl)phosphine, 100 μM biotin-azide reagent, and 1 mM CuSO4. Samples were dialyzed in 50 mM HEPES, pH 8.0, 150 mM NaCl, 0.1% SDS, and 1% Triton X-100 to remove excess biotin-azide reagent. Biotinylated soluble receptors were captured with streptavidin-agarose resin. Protein-SINT1 complexes were separated by 10% SDS-PAGE and subjected to Western blotting analysis using AR-N20 (1:1000) and biotin (1:1000) antibodies. Proteins were visualized using ECL detection reagent (Amersham Biosciences).
To reveal whether SINT1 binds to endogenous AR, LNCaP cells were incubated with modified SINT1 click chemistry probes (LPY19, LPY30, and LPY31 shown in Fig. 2A). The EPI-002 click chemistry probe EPI-053 was used as a positive control ([5]). […] LNCaP cells were incubated overnight with these probes prior to click chemistry to add biotin to each click chemistry probe (see schema in Fig. 2B, right). Cell lysates were used for immunoprecipitation with streptavidin to isolate those proteins bound to biotinylated probes. Immunocomplexes were split with one aliquot used for Western blotting analysis using an antibody to biotin (Fig. 2B, left) and the other aliquot for Western blotting analysis using an antibody to AR (Fig. 2B, middle). […] Consistent with these biotin bands corresponding to AR, the AR was immunoprecipitated with streptavidin only in those immunocomplexes that were both positive for biotin (Fig. 2B) and biologically active against AR transcriptional activity (EPI-053, LPY30, and LPY31).

AR [1] = biological target: T2, AR (Homo sapiens, UniProt P10275, T878A); design: method as in PMID 23722902; conditions: cited from earlier work
T2 construct: endogenous in cells; host or cells: LNCaP
T2 sequence (P10275 1-920 T878A): T1 sequence (P10275 1-920 T878A)

[2] = biological target: T3, Histidine-tagged AR AF-1 recombinant protein (Homo sapiens, UniProt P10275); assay: Binding assay of click chemistry probes to recombinant AR AF-1; conditions: cell-free, AF1-His tag, 1:10 molar ratio, 37 °C 3 h
T3 construct: made in house
T3 sequence (P10275 142-485): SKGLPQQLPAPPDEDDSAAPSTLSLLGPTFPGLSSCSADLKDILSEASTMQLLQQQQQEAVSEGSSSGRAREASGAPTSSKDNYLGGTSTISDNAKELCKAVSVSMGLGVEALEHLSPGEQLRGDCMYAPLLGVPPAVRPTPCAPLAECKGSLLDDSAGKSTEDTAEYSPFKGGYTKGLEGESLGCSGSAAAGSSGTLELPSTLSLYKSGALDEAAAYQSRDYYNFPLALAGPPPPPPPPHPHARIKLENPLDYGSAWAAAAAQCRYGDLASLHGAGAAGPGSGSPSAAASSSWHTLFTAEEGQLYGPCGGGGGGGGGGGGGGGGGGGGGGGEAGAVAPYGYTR
Description: Histidine-tagged AR AF-1 recombinant protein was expressed and purified as described ([5]). The binding reaction was carried out by mixing AR AF-1 protein with alkyne-containing LPY probes or DMSO at a 1:10 molar ratio and incubated in buffer containing 10 mM HEPES, pH 7.9, and 100 mM NaCl at 37 °C for 3 h. LPY probes were labeled with biotin by copper-catalyzed click chemistry reaction at 25 °C for 1 h ([5]). Samples were resolved by 10% SDS-PAGE, and Western blotting was performed to detect biotin and histidine-tagged AR AF-1 using IRDye® 680LT streptavidin (1:5000) and anti-His (1:1000) antibody, respectively.
Therefore, we next evaluated whether SINT1 binds the AF-1 region in AR NTD. Purified recombinant AF-1 protein (AF1-His tag) was incubated under cell-free conditions with LPY19, LPY30, and LPY31 prior to click chemistry to add a biotin to the LPY probe (see schema in Fig. 2C, right).

AR [3] = biological target: T2, AR; assay: AR transcriptional activity of SINT1 click chemistry probes, PSA (6.1 kb)-luciferase in LNCaP cells; type: cell-based; conditions: for biological activity measured using an AR-driven reporter gene construct: 40 μM LPY19, 20 μM LPY30 and LPY31
Description: FIGURE 2. SINT1 binds endogenous AR in living cells to inhibit transactivation of AR NTD. A, chemical structures of EPI-002, EPI-053, LPY19, LPY30, LPY31, and SINT1 (left). The effect of SINT1 probes in AR transcriptional activity was tested in LNCaP cells transiently transfected with PSA (6.1 kb)-luciferase and exposed for 1 h to 40 μM LPY19 and 20 μM LPY30 and LPY31 before induction with 1 nM […] for 48 h. Error bars represent the mean ± S.E. of n = 3 independent experiments with triplicate wells (right). B, binding of SINT1 click chemistry analogs to FL-AR in cells. LNCaP cells were exposed to modified SINT1 (LPY19, -30, and -31), EPI-053, or DMSO vehicle overnight prior to preparing whole cell lysates for click chemistry reactions. Biotinylated SINT1 or EPI probes bound to proteins were captured with streptavidin-agarose resin prior to separation by 10% SDS-PAGE and subjected to Western blotting analysis with antibodies directed to either biotin (left) or AR (middle). Red boxes highlight where AR migrates on the gel. Right, schema of experiment. […] Right, schema of experiment.

[4] = biological target: T4, progesterone receptor (PR)-β (Homo sapiens, UniProt P06401); assay: Steroid receptor specificity: PRE-luciferase reporter in LNCaP cells; type: cell-based; conditions: 10 μM compound, 10 nM 4-pregnene-3,20-dione, 48 h
T4 construct: expressed in transfected cells; host or cells: LNCaP
T4 sequence (P06401 1-933): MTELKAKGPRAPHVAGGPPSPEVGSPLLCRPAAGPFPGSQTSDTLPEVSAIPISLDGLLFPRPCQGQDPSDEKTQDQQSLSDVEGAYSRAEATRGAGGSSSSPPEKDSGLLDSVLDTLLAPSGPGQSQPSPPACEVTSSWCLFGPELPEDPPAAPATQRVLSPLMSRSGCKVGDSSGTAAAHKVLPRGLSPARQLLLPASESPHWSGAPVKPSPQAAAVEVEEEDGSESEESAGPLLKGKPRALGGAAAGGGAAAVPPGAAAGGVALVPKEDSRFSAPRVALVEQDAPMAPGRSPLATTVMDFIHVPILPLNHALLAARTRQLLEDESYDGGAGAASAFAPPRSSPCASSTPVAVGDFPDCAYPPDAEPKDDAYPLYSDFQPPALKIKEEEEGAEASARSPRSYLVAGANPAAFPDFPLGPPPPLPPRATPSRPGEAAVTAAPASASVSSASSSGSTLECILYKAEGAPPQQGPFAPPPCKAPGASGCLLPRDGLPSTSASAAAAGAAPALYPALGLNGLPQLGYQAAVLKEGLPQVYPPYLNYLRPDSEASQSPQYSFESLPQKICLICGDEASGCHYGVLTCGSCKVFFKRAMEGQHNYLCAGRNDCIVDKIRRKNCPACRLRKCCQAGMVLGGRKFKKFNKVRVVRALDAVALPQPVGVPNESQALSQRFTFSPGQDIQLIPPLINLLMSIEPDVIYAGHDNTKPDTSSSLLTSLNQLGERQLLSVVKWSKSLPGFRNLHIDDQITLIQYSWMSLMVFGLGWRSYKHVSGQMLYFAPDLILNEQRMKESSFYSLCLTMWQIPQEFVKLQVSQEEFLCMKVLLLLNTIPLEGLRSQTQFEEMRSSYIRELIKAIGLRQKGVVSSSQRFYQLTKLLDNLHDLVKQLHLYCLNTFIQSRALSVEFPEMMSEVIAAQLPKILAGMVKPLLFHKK
Description: LNCaP cells were transfected with the reporter plasmid PSA(6.1kb)-luciferase, PRE-luciferase, or GRE-luciferase and expression vector for progesterone receptor (PR)-β or glucocorticoid receptor (GR)-α in serum-free, phenol red-free medium using Lipofectin (Invitrogen). […] After 48 h of treatment, cells were lysed and analyzed for luciferase activities.
FIGURE 1. […] A, LNCaP cells were transfected with PSA (6.1 kb)-luciferase, PRE-luciferase, or GRE-luciferase reporters and expression vector for PRβ or GRα. […] Error bars represent mean percentage of vehicle activity ±S.E. of at least three independent experiments with triplicate wells. SINT1, 10 μM; […]; ***, p < 0.001. […]. Error bars represents mean ± S.E. of three technical replicates. […] DAPI staining indicates the location of the nucleus. Scale bars, 20 μm.

LNCaP95 cells = assay: Cell proliferation (BrdU incorporation), LNCaP95; type: cell-based; conditions: 48 h
Description: Cells were pulse-labeled with 10 μM BrdU for 2 h. Cells were fixed, and BrdU-labeled cells were identified with anti-BrdU-peroxidase (Roche Applied Science). BrdU incorporation was measured at 570 nm using a VersaMax ELISA microplate reader (Molecular Devices). At least three independent experiments with six technical replicates were analyzed, and average values are indicated.

[5] = LNCaP, PSA (6.1 kb)-luciferase, 1 nM R1881 48 h

Compound	binding to endogenous FL-AR (biotin band corresponding to AR after streptavidin capture) (endogenous FL-AR)	binding of biotinylated probe to AF-1 [2]	biological activity measured using an AR-driven reporter gene construct (AR [3]; [5])	also measured
CC(C)(c1ccc(OCC(O)CO)cc1)c1ccc(OCC(O)CCl)cc1 (stereo not drawn) [EPI-001]	–	–	–	binding to Tau5 by NMR spectroscopy (Tau5): binds in a pocket in Tau5
C#CCOC[C@H](O)COc1ccc(C(C)(C)c2ccc(OC[C@H](O)CCl)cc2)cc1 [EPI-053, reference compound]	a band corresponding to AR	–	–	biological activity measured using an AR-driven reporter gene construct (AR [1]): had biological activity
C#CCCC(=O)N[C@H](CC(C)C)C(=O)N1C(=O)C=C(OC)[C@@H]1CC(C)C [LPY19]	not	no binding	very weak activity	activity at 20 μM, AR-driven reporter (AR [3]; 20 μM): inactive; IC50 (AR [3]; LNCaP, PSA (6.1 kb)-luciferase, 1 nM R1881 48 h, read-out: IC50, AR-driven reporter gene construct): ~40 µM
C#CCCC(=O)NC(CCC(Cl)(Cl)Cl)C(=O)N1C(=O)C=C(OC)C1CCC(Cl)(Cl)Cl (stereo not shown) [LPY30]	a band corresponding to AR	binding	had biological activity	–
CC(O)(CS(=O)(=O)c1ccc(F)cc1)C(=O)Nc1ccc(C#N)c(C(F)(F)F)c1 (stereo not shown) [bicalutamide, reference compound]	–	–	–	PR transcriptional activity (PRE-luciferase) [4]: inhibited; proliferation of LNCaP95 cells (LNCaP95 cells): no effect
